# PMC4961579 (Journal of neurochemistry, 2016)
# Assays:
# Experiment in all cases: two-electrode voltage clamp, micro-transplanted oocytes
# Assay type in all cases: cell-based
# [1] = system: AMPA receptor (native synaptic, human cortical synaptosomes); details: antagonist; 100 µM AMPA + 100 µM cyclothiazide; -100 mV, pH 7.4
# [2] = system: AMPA receptor (native synaptic, rat prefrontal cortex synaptosomes); details: antagonist; 100 µM AMPA + 30 µM cyclothiazide; -100 mV, pH 7.4
# [3] = target: AMPA receptor with TARP gamma-8 (native, rat hippocampal synaptosomes) (Rattus norvegicus, UniProt P19490+P19491+Q8VHW5); details: read-out: % inhibition at 10 μM
# [4] = system: NMDA receptor (native synaptic, rat prefrontal cortex synaptosomes); details: 300 µM NMDA, 30 µM glycine, -100 mV, pH 7.4
# [5] = system: GABAA receptor (native synaptic, human cortical synaptosomes); details: positive allosteric modulator; 30 µM GABA; legend says 212% potentiation
# AMPA receptor with TARP gamma-8 (native, rat hippocampal synaptosomes), sequence (Q8VHW5 whole entry): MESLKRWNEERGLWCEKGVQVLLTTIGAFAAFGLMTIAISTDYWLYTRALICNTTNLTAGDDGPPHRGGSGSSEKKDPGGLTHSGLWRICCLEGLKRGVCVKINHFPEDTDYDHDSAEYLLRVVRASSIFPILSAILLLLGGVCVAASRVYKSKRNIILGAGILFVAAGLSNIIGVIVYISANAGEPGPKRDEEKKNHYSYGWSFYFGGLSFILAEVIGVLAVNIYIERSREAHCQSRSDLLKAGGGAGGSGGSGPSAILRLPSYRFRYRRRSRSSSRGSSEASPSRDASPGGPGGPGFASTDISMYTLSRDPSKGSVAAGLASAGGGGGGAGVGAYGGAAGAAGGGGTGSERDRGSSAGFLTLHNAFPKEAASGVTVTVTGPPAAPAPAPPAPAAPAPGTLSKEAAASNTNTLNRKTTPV
# AMPA receptor with TARP gamma-8 (native, rat hippocampal synaptosomes), sequence (P19490 19-907): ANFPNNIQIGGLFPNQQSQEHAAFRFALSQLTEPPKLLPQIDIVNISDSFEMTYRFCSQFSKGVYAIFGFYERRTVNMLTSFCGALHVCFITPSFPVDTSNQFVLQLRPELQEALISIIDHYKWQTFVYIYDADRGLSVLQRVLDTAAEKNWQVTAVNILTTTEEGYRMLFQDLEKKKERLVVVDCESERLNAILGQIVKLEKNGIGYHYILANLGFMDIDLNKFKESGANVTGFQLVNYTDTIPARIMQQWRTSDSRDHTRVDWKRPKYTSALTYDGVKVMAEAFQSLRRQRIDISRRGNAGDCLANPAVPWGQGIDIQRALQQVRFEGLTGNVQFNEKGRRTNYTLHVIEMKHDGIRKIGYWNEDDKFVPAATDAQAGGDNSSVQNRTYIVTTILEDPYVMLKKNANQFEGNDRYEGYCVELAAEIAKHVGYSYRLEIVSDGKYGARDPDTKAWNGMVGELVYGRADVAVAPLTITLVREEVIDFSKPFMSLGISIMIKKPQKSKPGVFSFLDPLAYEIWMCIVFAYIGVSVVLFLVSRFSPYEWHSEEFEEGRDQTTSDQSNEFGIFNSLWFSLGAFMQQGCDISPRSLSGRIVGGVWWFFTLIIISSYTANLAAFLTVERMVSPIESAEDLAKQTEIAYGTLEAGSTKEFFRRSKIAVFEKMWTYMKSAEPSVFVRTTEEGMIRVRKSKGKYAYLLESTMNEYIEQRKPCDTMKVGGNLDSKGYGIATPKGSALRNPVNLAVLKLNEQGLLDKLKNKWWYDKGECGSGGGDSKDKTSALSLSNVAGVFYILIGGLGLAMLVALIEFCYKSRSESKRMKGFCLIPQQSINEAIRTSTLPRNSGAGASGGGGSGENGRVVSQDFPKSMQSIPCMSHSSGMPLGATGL
# AMPA receptor with TARP gamma-8 (native, rat hippocampal synaptosomes), sequence (P19491 22-883): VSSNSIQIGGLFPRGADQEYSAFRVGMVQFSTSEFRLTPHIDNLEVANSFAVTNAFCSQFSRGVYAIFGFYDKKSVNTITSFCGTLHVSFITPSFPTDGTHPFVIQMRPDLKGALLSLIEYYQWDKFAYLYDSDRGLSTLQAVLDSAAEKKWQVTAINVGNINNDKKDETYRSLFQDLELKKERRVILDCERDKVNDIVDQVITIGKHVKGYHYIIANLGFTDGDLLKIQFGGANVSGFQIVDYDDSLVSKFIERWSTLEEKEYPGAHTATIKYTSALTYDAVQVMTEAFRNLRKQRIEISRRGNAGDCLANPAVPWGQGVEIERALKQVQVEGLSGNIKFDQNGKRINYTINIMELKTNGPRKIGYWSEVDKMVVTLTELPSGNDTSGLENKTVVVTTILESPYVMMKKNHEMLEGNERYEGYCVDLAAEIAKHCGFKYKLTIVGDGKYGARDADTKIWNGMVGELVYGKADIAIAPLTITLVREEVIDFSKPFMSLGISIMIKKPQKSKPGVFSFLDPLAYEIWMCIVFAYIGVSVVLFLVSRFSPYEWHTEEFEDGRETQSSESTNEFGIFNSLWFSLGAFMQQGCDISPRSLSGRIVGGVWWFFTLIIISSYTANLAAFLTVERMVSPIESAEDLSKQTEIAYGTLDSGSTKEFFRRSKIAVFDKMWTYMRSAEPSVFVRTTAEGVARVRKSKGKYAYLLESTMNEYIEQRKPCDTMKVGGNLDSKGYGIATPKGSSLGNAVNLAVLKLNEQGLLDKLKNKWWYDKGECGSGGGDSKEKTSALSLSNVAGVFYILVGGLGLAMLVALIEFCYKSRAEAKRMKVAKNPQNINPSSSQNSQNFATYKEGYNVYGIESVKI
smiles,measurement,setting,value
N#Cc1ccccc1-c1cc(-c2ccccn2)cn(-c2ccccc2)c1=O [perampanel],% inhibition at 30 μM,[1],91%
same,% inhibition at 30 μM,[2],97%
C[C@@H](c1ccc2[nH]c(=O)sc2c1)c1ccn(-c2ccc(OCCO)cn2)n1 [LY3130481],inhibition at 10 µM,[3],55 ± 6.8%
C[C@]12N[C@H](Cc3ccccc31)c1ccccc12 [MK801],% inhibition at 1 μM,[4]; non-competitive antagonist,100%
Cc1ccc(-c2nc3ccc(C)cn3c2CC(=O)N(C)C)cc1 [zolpidem],% of control at 1 μM,[5],212%
CC(C(O)c1ccc(O)cc1)N1CCC(Cc2ccccc2)CC1 (stereo not drawn) [ifenprodil],% inhibition at 10 μM,[4]; GluN2B-selective antagonist,75%
